According to patent publication US8138214B2, “Pharmaceutical composition” (Shanghai Allist Pharmaceutical, Inc., priority 2007, dated 2012):

Columns and labels:
[1] = system: spontaneously hypertensive rat (SHR); experiment: Blood pressure in spontaneously hypertensive rat after gavage; assay type: in vivo; settings: for blood pressure decrease: SHR, dispersed in physiologic saline
[2] = dog, in vivo, po, 27 mg/kg
Description: (I) Beagle dogs are selected as experimental animals, six dogs per group. 2-butyl-4-chloro-1-[2′-(1H-tetrazol-5-yl) 1,1′-biphenyl-methyl]imidazole-5-carboxylic acid, 1-[(isopropoxy)carbonyloxy]methyl ester suspended in physiologic saline is administered in single dose of drug by gavage in dosage level of 3.0 mg/kg, 9.0 mg/kg, and 27 mg/kg. Blood samples were drawn for each dosage group at set time point. […] Determine the level of the active metabolite in plasma, calculate EXP3174's pharmacokinetic parameters according to the concentration-time curve, and investigate the correlation between dosage and main pharmacokinetic parameters Cmax and AUC0-t.

correlation between dosage and Cmax and AUC0-t of EXP3174 [2]: proportional to the dosage
Compound: CCCCc1nc(Cl)c(C(=O)OCOC(=O)OC(C)C)n1Cc1ccc(-c2ccccc2-c2nnn[nH]2)cc1 [Compound I, 2-butyl-4-chloro-1-[2′-(1H-tetrazol-5-yl)1,1′-biphenyl-methyl]imidazole-5-carboxylic acid, 1-[(isopropoxy)carbonyloxy]methyl ester]
blood pressure decrease ([1]; 15 mg/kg by gavage): 10 mm of mercury column
blood pressure decrease ([1]; 30 mg/kg by gavage): 20 mm of mercury column
antihypertensive effect ([1]; rats, oral dosage no less than 15 mg/kg): significant antihypertensive effect
